In patent US11912699B2, “Tau-protein targeting compounds and associated” (Arvinas Operations, Inc., priority 2019, dated 2024):

The compounds below were run against T1, Tau P301L (Homo sapiens, UniProt P10636, P618L) (assay: In vitro tau degradation assay in CHOK1 Tau P301L cells (sarkosyl insoluble tau, WES)). Settings: CHO-K1; CHOK1 Tau P301L cells; remaining tau in sarkosyl insoluble pellet; 48 hours with test compound at 1 μM, doxycycline removed for last 24 hours; relative to DMSO doxycycline control; read-out: Tau Protein Degradation effect at 1 μM.
T1 construct: expressed in transfected cells
Type: cell-based
Method: Exemplary bifunctional molecules of the present disclosure are represented by the structures in Table 1, which includes associated data. In vitro tau protein degradation data in CHOK1 Tau P301L cells, as described below, is reported based on the remaining tau protein in the sarkosyl insoluble pellet following treatment of cells for 48 hours with test compound at the 1 μM concentration where the last 24 hours doxycycline was removed. The data are represented relative to DMSO doxycycline control: • A ≤50% of tau protein remaining (>50% of tau protein degraded) • B >50% of tau protein remaining ([…] of tau protein degraded)
Data for compounds in Table 1 was generated using in vitro tau Degradation Assay protocol as described in Methods for FIGS. 2A and 2B below.
FIGS. 2A and 2B. (2A) Tau expression was induced by addition (+) of doxycycline (1 μg/ml) to ChoK1-Tau P301L clone D1.
In vitro tau Degradation Assay for FIGS. 2A and 2B. T-Rex CHOK1 cells are maintained in Ham's F-12 Nutrient Mix (ThermoFisher) plus 10% Fetal Bovine Serum Tetracycline Negative (Corning) with 10 ug/mL Blasticidin S HCl (Gibco) and 200 ug/mL Zeocin (100 mg/mL, Invitrogen). A stable clone expressing Tau P301L in the presence of doxycycline (1 μg/ml), clone D1 was selected. Compounds were diluted to indicated concentrations and used to treat cells for the indicated times. Cells were harvested from either 96, 24, 6, or 10 cm dishes coated with Poly-D-Lysine (Corning) in ice cold PBS or Buffer H+HALT Protease and phosphatase inhibitors (Thermofisher). Sarkosyl Insoluble tau was isolated as described in Eckermann et al. and Greenberg and Davies, accordingly. WES™ capillary electrophoresis analysis was performed on the Sarkosyl Insoluble tau fraction using Tau1 antibody (Milipore) unless otherwise indicated, as specified in the manufacturers specification (ProteinSimple).

T1 sequence (P10636 1-441 isoform P10636-8 P301L): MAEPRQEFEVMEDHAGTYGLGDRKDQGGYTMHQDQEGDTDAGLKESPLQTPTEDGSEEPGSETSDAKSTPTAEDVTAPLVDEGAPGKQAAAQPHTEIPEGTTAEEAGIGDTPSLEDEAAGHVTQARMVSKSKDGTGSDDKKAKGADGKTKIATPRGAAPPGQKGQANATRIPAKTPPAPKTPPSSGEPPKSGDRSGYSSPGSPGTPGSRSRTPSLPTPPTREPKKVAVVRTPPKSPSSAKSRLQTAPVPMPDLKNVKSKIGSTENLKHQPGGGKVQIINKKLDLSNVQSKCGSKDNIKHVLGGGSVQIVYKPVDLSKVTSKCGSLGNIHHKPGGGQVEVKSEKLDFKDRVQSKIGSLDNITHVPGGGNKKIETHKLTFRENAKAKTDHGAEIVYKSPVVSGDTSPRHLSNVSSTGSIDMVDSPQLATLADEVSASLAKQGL

remaining activity at 1 µM [%]	SMILES
< 50	CN(C)c1ccn2cc(-c3cnc(N4CCC(CCN5CCN(c6ccc7c(c6)C(=O)N(C6CCC(=O)NC6=O)C7=O)CC5)CC4)c(F)c3)nc2c1 (stereo not drawn) [Compound 680, 5-(4-(2-(1-(5-(7-(dimethylamino)imidazo [1,2-a]pyridin-2-yl)-3-fluoropyridin-2-yl)piperidin-4-yl)ethyl)piperazin-1-yl)-2-(2,6-dioxopiperidin-3-yl)isoindoline-1,3-dione]
< 50	CC(C)(C1CCN(c2ncc(-c3ccc4c5cnccc5n(C(F)F)c4c3)cc2F)CC1)N1CCN(c2ccc3c(c2)C(=O)N(C2CCC(=O)NC2=O)C3=O)CC1 (stereo not drawn) [Compound 609, 5-(4-(2-(1-(5-(5-(difluoromethyl)-5H-pyrido[4,3-b]indol-7-yl)-3-fluoropyridin-2-yl)piperidin-4-yl)propan-2-yl)piperazin-1-yl)-2-(2,6-dioxopiperidin-3-yl)isoindoline-1,3-dione]
< 50	O=C1CCC(N2C(=O)c3ccc(N4CCN(CCC5CCN(Cc6ncc(-c7ccc8c9cnccc9n(C(F)F)c8c7)cc6F)CC5)CC4)cc3C2=O)C(=O)N1 (stereo not drawn) [Compound 632, 5-(4-(2-(1-((5-(5-(difluoromethyl)-5H-pyrido[4,3-b]indol-7-yl)-3-fluoropyridin-2-yl)methyl)piperidin-4-yl)ethyl)piperazin-1-yl)-2-(2,6-dioxopiperidin-3-yl)isoindoline-1,3-dione]

SMILES	remaining activity at 1 µM [%]
O=C1CCC(N2C(=O)c3ccc(N4CCC(CN5CCC(O[C@H]6C[C@H](Oc7ccc8c9cnccc9n(C(F)F)c8c7)C6)CC5)CC4)cc3C2=O)C(=O)N1 (stereo partly drawn) [Compound 605, 5-(4-((4-((1r,3r)-3-((5-(difluoromethyl)-5H-pyrido[4,3-b]indol-7-yl)oxy)cyclobutoxy)piperidin-1-yl)methyl)piperidin-1-yl)-2-(2,6-dioxopiperidin-3-yl)isoindoline-1,3-dione]	< 50

Same assay, conditions: CHO-K1; remaining tau protein in sarkosyl insoluble pellet; CHOK1 Tau P301L cells treated 48 hours with test compound at 1 μM, doxycycline removed for the last 24 hours; relative to DMSO doxycycline control; read-out: Tau Protein Degradation effect at 1 μM

remaining activity at 1 µM [%]	SMILES
< 50	Nc1cccc2cnc(-n3ccc4cc(OCCOCCOCCOCCOCCOc5ccc6c(c5)C(=O)N(C5CCC(=O)NC5=O)C6=O)ncc43)cc12 (stereo not drawn) [Compound 352, 5-((14-((1-(5-aminoisoquinolin-3-yl)-1H-pyrrolo[2,3-c]pyridin-5-yl)oxy)-3,6,9, 12-tetraoxatetradecyl)oxy)-2-(2,6-dioxo-piperidin-3-yl) isoindoline-1,3-dione]
< 50	Cn1c2ccncc2c2ccc(C3CCN(CCC4CCN(c5ccc6c(c5)C(=O)N(C5CCC(=O)NC5=O)C6=O)CC4)CC3)cc21 (stereo not drawn) [Compound 498, 2-(2,6-dioxopiperidin-3-yl)-5-(4-(2-(4-(5-methyl-5H-pyrido[4,3-b]indol-7-yl)piperidin-1-yl)ethyl)piperidin-1-yl)isoindoline-1,3-dione]
< 50	Cn1c2ccncc2c2ccc(-c3ccc(OC4CC5(C4)CN(C(=O)CC4CCN(CC6CN(c7ccc8c(c7)C(=O)N(C7CCC(=O)NC7=O)C8=O)C6)CC4)C5)nc3)cc21 (stereo not drawn) [Compound 472, 2-(2,6-dioxopiperidin-3-yl)-5-(3-((4-(2-(6-((5-(5-methyl-5H-pyrido[4,3-b]indol-7-yl)pyridin-2-yl)oxy)-2-azaspiro[3.3]heptan-2-yl)-2-oxoethyl)piperidin-1-yl)methyl)azetidin-1-yl)isoindoline-1,3-dione]
< 50	Cc1ccc(-c2cn3ccc(N4CCC(CCN5CCN(c6ccc7c(c6)C(=O)N(C6CCC(=O)NC6=O)C7=O)CC5)CC4)cc3n2)cc1 (stereo not drawn) [Compound 558, 2-(2,6-dioxopiperidin-3-yl)-5-(4-(2-(1-(2-(p-tolyl)imidazo[1,2-a]pyridin-7-yl)piperidin-4-yl)ethyl)piperazin-1-yl)isoindoline-1,3-dione]
< 50	Cn1c2ccncc2c2ccc(-c3ccc(O[C@H]4C[C@H](N(C)C5CC6(C5)CN(CCC5CCN(c7ccc8c(c7)C(=O)N(C7CCC(=O)NC7=O)C8=O)CC5)C6)C4)nc3)cc21 (stereo partly drawn) [Compound 401, 2-(2,6-dioxopiperidin-3-yl)-5-(4-(2-(6-(methyl((1r,3r)-3-((5-(5-methyl-5H-pyrido[4,3-b]indol-7-yl)pyridin-2-yl)oxy)cyclobutyl)amino)-2-azaspiro[3.3]heptan-2-yl)ethyl)piperidin-1-yl) isoindoline-1,3-dione]
< 50	Cc1cc2c(cn1)c1ccc(-c3cnc(N4CCC(CCN5CCN(c6ccc7c(c6)C(=O)N(C6CCC(=O)NC6=O)C7=O)CC5)CC4)c(F)c3)cc1n2C (stereo not drawn) [Compound 561, 5-(4-(2-(1-(5-(3,5-dimethyl-5H-pyrido[4,3-b]indol-7-yl)-3-fluoropyridin-2-yl)piperidin-4-yl)ethyl)piperazin-1-yl)-2-(2,6-dioxopiperidin-3-yl)isoindoline-1,3-dione]
> 50	Cn1c2ccncc2c2ccc(-c3ccc(OC4CN(C5CCN(CCCCCOc6ccc7c(c6)C(=O)N(C6CCC(=O)NC6=O)C7=O)CC5)C4)nc3)cc21 (stereo not drawn) [Compound 424, 2-(2,6-dioxopiperidin-3-yl)-5-((5-(4-(3-((5-(5-methyl-5H-pyrido[4,3-b]indol-7-yl)pyridin-2-yl)oxy)azetidin-1-yl)piperidin-1-yl)pentyl)oxy) isoindoline-1,3-dione]
< 50	O=C1CCC(N2C(=O)c3ccc(N4CCN(CCC5CCN(c6ccc(-c7ccc8c(c7)[nH]c7ccncc78)cn6)CC5)CC4)cc3C2=O)C(=O)N1 (stereo not drawn) [Compound 400, 2-(2,6-dioxopiperidin-3-yl)-5-(4-[2-[1-(5-[5H-pyrido[4,3-b]indol-7-yl]pyridin-2-yl)piperidin-4-yl]ethyl]piperazin-1-yl)isoindole-1,3-dione]
< 50	O=C1CCC(N2C(=O)c3ccc(N4CCN(CCC5CCN(c6cc(Nc7ccc8ncccc8n7)ccn6)CC5)CC4)cc3C2=O)C(=O)N1 (stereo not drawn) [Compound 583, 2-(2,6-dioxo-3-piperidyl)-5-[4-[2-[1-[4-(1,5-naphthyridin-2-ylamino)-2-pyridyl]-4-piperidyl]ethyl]piperazin-1-yl]isoindoline-1,3-dione]
< 50	N#Cc1cc(-c2ccc3c4cnccc4n(C(F)F)c3c2)cnc1N1CCC(CCN2CCN(c3ccc4c(c3)C(=O)N(C3CCC(=O)NC3=O)C4=O)CC2)CC1 (stereo not drawn) [Compound 454, 5-(5-(difluoromethyl)-5H-pyrido[4,3-b]indol-7-yl)-2-(4-(2-(4-(2-(2,6-dioxopiperidin-3-yl)-1,3-dioxoisoindolin-5-yl)piperazin-1-yl)ethyl)piperidin-1-yl)nicotinonitrile]
< 50	Cc1cnc(Nc2ccc3cnccc3c2)cc1OCCOCCOCCOCCOc1ccc2c(c1)C(=O)N(C1CCC(=O)NC1=O)C2=O (stereo not drawn) [Compound 369, 2-(2,6-dioxopiperidin-3-yl)-5-(2-(2-(2-(2-((2-(isoquinolin-6-ylamino)-5-methylpyridin-4-yl)oxy)ethoxy)ethoxy)ethoxy)ethoxy) isoindoline-1,3-dione]
> 50	Cn1c2ccncc2c2ccc(-c3ccc(O[C@H]4C[C@H](CN5CCC(CCCN6CC(Oc7ccc8c(c7)C(=O)N(C7CCC(=O)NC7=O)C8=O)C6)CC5)C4)nc3)cc21 (stereo partly drawn) [Compound 394, 2-(2,6-dioxopiperidin-3-yl)-5-((1-(3-(1-(((1r,3r)-3-((5-(5-methyl-5H-pyrido[4,3-b]indol-7-yl)pyridin-2-yl)oxy)cyclobutyl)methyl)piperidin-4-yl)propyl)azetidin-3-yl)oxy)isoindoline-1,3-dione]

SMILES	remaining activity at 1 µM [%]
Cc1ncsc1-c1ccc([C@H](C)NC(=O)[C@@H]2C[C@@H](O)CN2C(=O)[C@@H](NC(=O)CN2CCN(CCN3CCC(O[C@H]4C[C@H](Oc5ccc(-c6ccc7c8cnccc8n(C)c7c6)cn5)C4)CC3)CC2)C(C)(C)C)cc1 [Compound 389, (2S,4R)-1-((S)-3,3-dimethyl-2-(2-(4-(2-(4-((1r,3r)-3-((5-(5-methyl-5H-pyrido[4,3-b]indol-7-yl)pyridin-2-yl)oxy)cyclobutoxy)piperidin-1-yl)ethyl)piperazin-1-yl)acetamido)butanoyl)-4-hydroxy-N-((S)-1-(4-(4-methylthiazol-5-yl)phenyl)ethyl) pyrrolidine-2-carboxamide]	< 50
Cc1ncsc1-c1ccc([C@H](C)NC(=O)[C@@H]2C[C@@H](O)CN2C(=O)[C@H](c2cc(OCCCCCN3CCC(O[C@H]4C[C@H](Oc5ccc(-c6ccc7c8cnccc8n(C)c7c6)cn5)C4)CC3)no2)C(C)C)cc1 [Compound 378, (2S,4R)-4-hydroxy-1-((S)-3-methyl-2-(3-((5-(4-((1r,3r)-3-((5-(5-methyl-5H-pyrido[4,3-b]indol-7-yl)pyridin-2-yl)oxy)cyclobutoxy)piperidin-1-yl)pentyl)oxy)isoxazol-5-yl)butanoyl)-N-((S)-1-(4-(4-methylthiazol-5-yl)phenyl)ethyl) pyrrolidine-2-carboxamide]	> 50
